From article PMC8748916, “Microbial enzymes induce colitis by reactivating triclosan in the mouse gastrointestinal tract” (Nature Communications, 2022)
Where “and” joins values, the source holds several entries; their conditions need not be identical. Equal entries are not always repeated.

Key:
[1] = LC-MS/MS of TCS and its metabolites in human stool and urine after use of TCS-containing personal care products; assay type: in vivo; settings: for TCS metabolites in human stool / TCS metabolites in human urine: Treatment TCS, individual subjects; for average molar concentration ratio: TCS-exposed subjects;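 for Profile in stool (%): molar share of summed TCS plus TCS-G plus TCS-sulfate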;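 for Profile in urine (%): molar share of summed TCS plus TCS-G plus TCS-sulfate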;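 for average molar concentration ratio: molar share of summed TCS plus TCS-G plus TCS-sulfate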
Description: To broaden our understanding of TCS metabolic profiles in the gut, we next analyzed TCS metabolism in human subjects. We utilized urine and stool samples from a previous study in which the recruited human subjects were first subjected to a washout period (no usage of TCS-containing products), then were randomly assigned to two groups that used personal care products like toothpaste with or without TCS for up to four months (see the scheme of the experiment in Fig. 1c)[15]. Previous data had established that humans are primarily exposed to TCS via toothpaste that provides a direct oral route to the gastrointestinal tract[16],[17].

[2] = Antibiotic suppression of gut microbiota: TCS colonic metabolism in mice (80 ppm TCS diet, 4 weeks); assay type: in vivo; settings: 80 ppm TCS via diet 4 weeks; antibiotic cocktail vs none
Description: This antibiotic composition was used in previous studies by others[20],[21] and us[22],[23]. […] After another 4 weeks, the mice were sacrificed, and their tissues were collected for LC-MS/MS analysis.

[3] = TCS colonic metabolism in conventional vs germ-free Swiss Webster mice; assay type: in vivo; settings: 6 h after oral gavage of 8 mg/kg TCS, individual mice
MC38 cells = assay: Inflammatory response of MC38 intestinal epithelial cells (Il-6 RT-qPCR, IL-6 ELISA); assay type: cell-based, mouse
Protocol: MC38 intestinal epithelial cells were cultured in Dulbecco’s Modified Eagle Medium (DMEM) supplemented with 10% fetal bovine serum (FBS) and incubated at 37 °C under an atmosphere of 5% CO2. MC38 cells were seeded at 20% confluency and left to settle overnight. Cells were then treated with either 1 μM TCS, TCS-G, or vehicle (DMSO). After 48 h, cells were harvested for RT-qPCR analysis. Cell medium was collected for ELISA analysis using the CBA Mouse Inflammation Kit (BD Sciences) according to the manufacturer’s instructions, and data were acquired using a BD LSR Fortessa flow cytometer (BD Biosciences) and analyzed using FlowJo software (Treestar).
Total RNA of colon tissues and MC38 cells were isolated using Trizol reagent (Ambion) according to the manufacturer’s instruction. RNA was reverse transcribed into cDNA using the High Capacity cDNA Reverse Transcription kit (Applied Biosystem) according to the manufacturer’s instructions. In all, 20 μL PCR reactions were prepared using the Maxima SYBR Green Master Mix (Thermo Fisher Scientific), and qPCR was carried out using a DNA Engine Opticon System (Bio-Rad Laboratories). Mouse-specific primer sequences (Thermo Fisher Scientific) used to detect inflammatory biomarkers are listed in Supplementary Table S6. Gapdh expression was used as an internal control.
a. Cultured murine intestinal epithelial MC38 cells were treated with 1 μM of TCS or TCS-G for 48 h prior to
studying inflammatory responses. b. TCS increases the expression of Il-6, which encodes the pro-inflammatory
n = 3 per group from three independent experiments, * P < 0.05, ** P < 0.01, *** P < 0.001.

[4] = LC-MS/MS profiling of TCS metabolism in mice (TCS via diet for 4 weeks); settings: for concentration of TCS, TCS-G, TCS-Sulfate: individual mice
[5] = Antibiotic suppression of gut microbiota: kinetics of TCS colonic metabolism after one-time oral gavage; settings: within the 24-h period; 8 mg/kg TCS oral gavage
[6] = Target engagement: GUSi in colon tissue and TCS to TCS-G ratio in colon digesta by LC-MS/MS; assay type: in vivo, mice; settings: for GUSi in colon tissue: GUSi-treated mice, individual mice
Protocol: After another 3 weeks, the mice were stimulated with 2% DSS (molecular weight = 36–50 KDa, MP Biomedicals, Solon, OH) in drinking water for 6 days to induce colitis. At end of the experiment, the mice were sacrificed for analysis.
Fig. S15. Orally dosed GUSi reaches the mouse colon and suppresses conversion of TCS -G to TCS. a.
mice were stimulated with DSS to induce colitis. The final GUSi was dosed on day 25 and mice were sacrificed
for analysis on day 27. b. GUSi is detected in the mouse colon 2 days after the final dose of the inhibitor. c.
GUSi treatment reduces the ratio of TCS to TCS-G in colon digesta.
per group. NA: no TCS or TCS-G detected.

[7] = treatment time 0 months (after washout)

## O=C(O)C1OC(Oc2cc(Cl)ccc2Oc2ccc(Cl)cc2Cl)C(O)C(O)C1O (stereo not drawn) [TCS-G, triclosan-glucuronide]
[1]; TCS-exposed human subjects, n=7 urine samples
  Profile in urine (%): 98.39%
[1]; TCS-exposed human subjects, n=23 stool samples
  Profile in stool (%): 0.80%
[1]; [7]
  TCS metabolites in human stool: 10.69 pmol/ g stool and 5.96 pmol/ g stool and < LOD and 10.80 pmol/ g stool
  TCS metabolites in human urine: 18.4 nM urine and 3.47 nM urine and < LOD and 12.5 nM urine
[1]; treatment time 1 month
  TCS metabolites in human stool: 10.24 pmol/ g stool and 13.69 pmol/ g stool and < LOD (3×) and 2.81 pmol/ g stool
  TCS metabolites in human urine: 626 nM urine
[1]; treatment time 2 months
  TCS metabolites in human stool: 3.18 pmol/ g stool and 2.97 pmol/ g stool and < LOD (2×) and 4.42 pmol/ g stool
  TCS metabolites in human urine: 953 nM urine
[1]; treatment time 3 months
  TCS metabolites in human stool: 7.01 pmol/ g stool and 5.96 pmol/ g stool and < LOD (3×) and 6.49 pmol/ g stool
  TCS metabolites in human urine: 771 nM urine
[1]; treatment time 4 months
  TCS metabolites in human stool: 7.57 pmol/ g stool and < LOD (3×) and 3.12 pmol/ g stool and 4.69 pmol/ g stool
  TCS metabolites in human urine: 1037 nM urine and 70.9 nM urine and 1373 nM urine and 775 nM urine
[1]; human stool
  average molar concentration ratio: 0.8%
[1]; human urine
  average molar concentration ratio: 98.4%
[2]
  change of concentration in the fecal content by antibiotic treatment: sixfold
[3]; CONV Swiss Webster mice
  tcs, tcs-G in colon digesta: 0.05 pmol/mg and 0.09 pmol/mg and 0.07 pmol/mg and 0.08 pmol/mg and 0.03 pmol/mg and 0.02 pmol/mg
[3]; GF Swiss Webster mice
  tcs, tcs-G in colon digesta: 3.55 pmol/mg and 2.97 pmol/mg and 3.05 pmol/mg and 2.08 pmol/mg and 2.61 pmol/mg
MC38 cells; 1 µM, 48 h
  Il-6 gene expression: does not
MC38 cells; MC38 cells, gene expression, replicates
  Il-6 (Fig. S16b): 1.072 and 0.7026 and 0.674 and 0.599 and 2.104 and 1.745 and 1.341 and 2.8489 and 1.88
MC38 cells; MC38 cells, protein, replicates
  IL-6 (Fig. S16c): 30.76 pg/mL and 26.1 pg/mL and 35.84 pg/mL and 30.49 pg/mL and 20.04 pg/mL and 13.78 pg/mL and 35.28 pg/mL and 36.12 pg/mL and 25.88 pg/mL
[4]; Cecum (digesta), 80 ppm TCS via diet 4 weeks
  concentration of TCS, TCS-G, TCS-Sulfate: 0.45 pmol/mg and 0.99 pmol/mg and 0.44 pmol/mg and 0.88 pmol/mg and 0.62 pmol/mg and 0.91 pmol/mg
[4]; Colon digesta, 1 ppm TCS in diet 4 weeks
  concentration of TCS, TCS-G, TCS-Sulfate: 0 pmol/mg
[4]; Colon digesta, 10 ppm TCS in diet 4 weeks
  concentration of TCS, TCS-G, TCS-Sulfate: 0.02 pmol/mg
[4]; Colon digesta, 80 ppm TCS in diet 4 weeks
  concentration of TCS, TCS-G, TCS-Sulfate: 0.1 pmol/mg
[4]; Feces, 1 ppm TCS in diet 4 weeks
  concentration of TCS, TCS-G, TCS-Sulfate: 0.06 pmol/mg
[4]; Feces, 10 ppm TCS in diet 4 weeks
  concentration of TCS, TCS-G, TCS-Sulfate: 0.13 pmol/mg
[4]; Feces, 80 ppm TCS in diet 4 weeks
  concentration of TCS, TCS-G, TCS-Sulfate: 0.35 pmol/mg and 0.43 pmol/mg
[4]; Heart, 80 ppm TCS via diet 4 weeks
  concentration of TCS, TCS-G, TCS-Sulfate: 2.11 pmol/mg and 1.13 pmol/mg and 0.90 pmol/mg and 1.39 pmol/mg
[4]; SI 1st section (digesta), 80 ppm TCS via diet 4 weeks
  concentration of TCS, TCS-G, TCS-Sulfate: 14.84 pmol/mg and 26.51 pmol/mg and 44.77 pmol/mg and 37.15 pmol/mg
[4]; SI 2nd section (digesta), 80 ppm TCS via diet 4 weeks
  concentration of TCS, TCS-G, TCS-Sulfate: 56.00 pmol/mg and 24.46 pmol/mg and 19.60 pmol/mg and 25.12 pmol/mg and 26.25 pmol/mg and 17.70 pmol/mg and 32.78 pmol/mg and 21.27 pmol/mg and 57.45 pmol/mg and 7.43 pmol/mg
[4]; SI 3rd section (digesta), 80 ppm TCS via diet 4 weeks
  concentration of TCS, TCS-G, TCS-Sulfate: 27.59 pmol/mg and 32.96 pmol/mg and 20.86 pmol/mg and 36.42 pmol/mg and 26.32 pmol/mg and 29.79 pmol/mg and 32.41 pmol/mg and 48.40 pmol/mg and 60.13 pmol/mg and 35.24 pmol/mg
[4]; SI 4th section (digesta), 80 ppm TCS via diet 4 weeks
  concentration of TCS, TCS-G, TCS-Sulfate: 46.08 pmol/mg and 59.25 pmol/mg and 48.99 pmol/mg and 79.17 pmol/mg and 94.49 pmol/mg and 43.76 pmol/mg and 46.26 pmol/mg and 23.11 pmol/mg and 8.33 pmol/mg and 51.24 pmol/mg
[4]; digesta of the 4th section of the mouse small intestine, 80 ppm TCS via diet 4 weeks
  share of TCS metabolites found: 55.4%
[4]; fecal content, 80 ppm TCS via diet 4 weeks
  share of TCS metabolites found: 0.7%
[5]
  increase of AUC in colon digesta by antibiotic treatment: ~ 200 fold

## C1CCc2c(c(N3CCOCC3)nc3sc4c(N5CCNCC5)nnnc4c23)C1 [GUSi, UNC10201652]
[6]; 2 days after the final oral administration of GUSi (1 mg/kg)
  presence in colon tissues: detected
[6]; GUSi 1 mg/kg oral gavage, TCS via diet
  ratio of TCS to TCS-G in colon digesta: significantly reduced
[6]; TCS
  GUSi in colon tissue: 4.6 pmol/g and 5.3 pmol/g and 18.7 pmol/g and 4.5 pmol/g and 2.1 pmol/g and 0.7 pmol/g and 6.2 pmol/g and 5.7 pmol/g and 12 pmol/g and 5.4 pmol/g
[6]; Veh (no TCS)
  GUSi in colon tissue: 9 pmol/g and 9.3 pmol/g and 5.9 pmol/g and 9.8 pmol/g and 11.9 pmol/g and 9.9 pmol/g and 14 pmol/g and 8.6 pmol/g
